Where only a bound is given, the exact number is not on record here.

Results on one compound are retold here after patent US20050004044A1, “Use of orsaponin [3beta, 16beta, 17 alpha-trihydroxycholost-5-en-22-one 16-0-(2-0-4-methoxybenzoyl-beta-D-xylopyranosyl)-(1->3)-(2-0-acetyl-alpha-L-arabinopyranoside)] or OSW-1 and its derivatives for cancer therapeutics” (priority 2003, published 2005).

The test system of assay [1] is HL-60 cells. The assay can be described thus: MTT cell growth inhibition, HL-60. As to conditions: Homo sapiens, HL-60, 72 hours. Format: cell-based. On the procedure: FIG. 2. Effect of Orsaponin (OSW-1) on cell growth in two human cancer cell lines including a leukemia and a lymphoma cell line. HL-60 (leukemia) and Raji cells (lymphoma) in exponentially growing phase were treated with the indicated concentrations of OSW-1 for 72 hours. Cell growth inhibition was measured by MTT assay.
Cells and Cell Lines. Various cancer cell lines were used including the human leukemia cell lines HL-60 and ML-1 cells; human lymphoma cell line Raji; human pancreatic cancer cells AsPC-1; and human ovarian cancer cells SKOV3; human colon cancer cells HCT116; as well as isolated CLL cells from patients; and lymphocytes from normal donors. Cells were grown and maintained as per protocols known in the art using appropriate cell culture media and supplements.
1. MTT Assays. For these assays either cancer cell lines were used. Alternatively, mononuclear cells from peripheral blood samples of CLL patients or normal donors were separated by Ficoll Hipaque fractionation and resuspended in DMEM complete medium. […] After the indicated number of days (usually 3 days or 72 hours) of exposure to OSW-1, cell survival was assessed by the addition of the MTT dye to the wells. […] Survival of cells under orsaponin treatment was evaluated as a percentage of control cell growth. […]

The next assay deals with AsPC-1/IκBα-ND cells. The assay can be described thus: MTT cell growth inhibition, AsPC-1 with NFκB inactivated. It counts as cell-based. The settings on record: Homo sapiens, ASPC1, 72 h. As for the experimental part:
FIG. 4. The anticancer activity of Orsaponin (OSW-1) is not affected by NFκB expression in pancreatic cancer cells. Human pancreatic cancer cells AsPC-1 with constitutive activation of NFκB or inactivation of NFκB by dominant negative IκBα (AsPC-1/IκBα-ND) were treated with the indicated concentrations of OSW-1 for 72 h. Cell growth inhibition was measured by MTT assay.
1. MTT Assays. For these assays either cancer cell lines were used. Alternatively, mononuclear cells from peripheral blood samples of CLL patients or normal donors were separated by Ficoll Hipaque fractionation and resuspended in DMEM complete medium. Malignant cells from various human cell lines (usually at 5×10^4 cells/ml) or mononuclear cells from peripheral blood of leukemia patients and healthy donors (1×10^6 cells/ml) were incubated in either αMEM or RPMI 1640 with or without various concentrations of OSW-1 in the range of 0-10 nM. Each experimental condition was done in triplicate. After the indicated number of days (usually 3 days or 72 hours) of exposure to OSW-1, cell survival was assessed by the addition of the MTT dye to the wells. […] Survival of cells under orsaponin treatment was evaluated as a percentage of control cell growth. […]
OSW-1 Inhibits Growth of Pancreatic Cancer Cells Irrespective of NFκB Expression. […] Cell growth inhibition was measured by MTT assay. […]

Assay [2] has as its system C6F cells (HL-60 mutant with mitochondrial respiration defect). The assay can be described thus: Apoptosis and cell cycle, respiration-deficient C6F. Format: cell-based, human. As to conditions: 0.5 nM, 16 and 24 h. As for the experimental part:
FIG. 9. Mitochondrial respiration plays an important role in the cytotoxic action of Orsaponin (OSW-1). The parental HL-60 line and its mutant with mitochondrial respiration defect, clone C6F, were incubated with 0.5 nM OSW-1 for the indicated times. Apoptosis and change in cell cycle distribution were assayed by flow cytometry analysis.
Two cancer cell lines and their mutant mitochondrial respiration deficient clones were analyzed for apoptosis and changes in cell-cycle following exposure to OSW-1. Thus, the parental HL-60 leukemia line and its mitochondrial respiration defective mutant C6F were incubated with 0.5 nM OSW-1 for 0, 8, 16 and 24 hours and apoptosis and change in cell cycle distribution were assayed by flow cytometry analysis. […] Thus, it is clear that the respiration defective cells are resistant to the effects of OSW-1. Consistent with these observations, apoptosis was also detected by DNA fragmentation assays performed at 24 and 32 hours after HL-60 cells are treated with OSW-1; DNA fragmentation was not observed in C6F cells even at 32 hours of drug incubation (data not shown).

In assay [3] the test system is HL-60 cells. Briefly: Mitochondrial transmembrane potential (rhodamine-123), HL-60. It counts as cell-based, human. As to conditions: HL-60, 0.5 nM. On the procedure:
FIG. 10. Effect of Orsaponin (OSW-1) on Mitochondrial transmembrane potential HL-60 cells. The parental HL-60 line and its mutant with mitochondrial respiration defect, clone C6F, were incubated with 0.5 nM OSW-1 for the indicated times. Change in mitochondrial transmembrane potential was measured by cytometry analysis, using rhodamine-123 as a potential-sensitive fluorescent dye.
3. Analysis of the Mitochondrial Transmembrane Potential. To evaluate the role of mitochondrial respiration in the cytotoxicity of OSW-1, changes in the potential of mitochondrial membrane were analyzed. Following the treatment of cells with OSW-1 for different time periods, cells were incubated with rhodamine-123 which is a potential-sensitive dye. Cytometric analysis was used to record changes in mitochondrial potential. […]
The effect of OSW-1 on mitochondrial transmembrane potential in HL-60 cells and C6F cells was also analyzed by incubating the cells with 0.5 nM OSW-1 for the 4, 16 and 24 hours. Change in mitochondrial transmembrane potential was measured by flow cytometry analysis, using rhodamine-123 as a potential-sensitive fluorescent dye and are depicted in FIG. 10.

Assay [4] has as its system normal human astrocytes (immortalized with hTER). Briefly: MTT cell growth inhibition, normal astrocytes. It counts as cell-based. As to conditions: Astrocyte, 72 h. On the procedure:
1. MTT Assays. For these assays either cancer cell lines were used. Alternatively, mononuclear cells from peripheral blood samples of CLL patients or normal donors were separated by Ficoll Hipaque fractionation and resuspended in DMEM complete medium. Malignant cells from various human cell lines (usually at 5×10^4 cells/ml) or mononuclear cells from peripheral blood of leukemia patients and healthy donors (1×10^6 cells/ml) were incubated in either αMEM or RPMI 1640 with or without various concentrations of OSW-1 in the range of 0-10 nM. Each experimental condition was done in triplicate. After the indicated number of days (usually 3 days or 72 hours) of exposure to OSW-1, cell survival was assessed by the addition of the MTT dye to the wells. The MTT dye changes its color depending on the presence of live cells in the well. Survival of cells under orsaponin treatment was evaluated as a percentage of control cell growth. Alternatively, one can also use the dye trypan-blue which penetrates dead cells thereby allowing one to count live cells under the microscope and estimating percentage survival.
To test the therapeutic selectivity of Orsaponin and 17-deoxyorsaponin, their effect on human brain tumor cells (U87 malignant glioma) and normal human astrocytes were compared. […] Cell growth inhibition was measured by MTT assay (FIG. 21).

In assay [5] the test system is cancer cells of pancreatic, ovarian, colon, and CLL origins. The assay can be described thus: Cytotoxicity in cancer cells, summary statement. Format: cell-based. As to conditions: Homo sapiens, read-out: IC50, kills cancer cells. From the text: The results were also observed in vivo in mouse models of ovarian cancer where animal survival was improved, and tumor volume reductions were observed

One may read the IC50 as the concentration at which inhibition is half-maximal. Regarding `COc1ccc(C(=O)OC2C(OC3C(O)COC(O[C@H]4C[C@H]5[C@@H]6CC=C7C[C@@H](O)CC[C@]7(C)[C@H]6CC[C@]5(C)[C@@]4(O)[C@H](C)C(=O)CCC(C)C)C3OC(C)=O)OCC(O)C2O)cc1` (stereo partly drawn) [OSW-1, 3β, 16β, 17 α-trihydroxycholost-5-en-22-one 16-O-(2-O-4-methoxybenzoyl-β-D-xylopyranosyl)-(1->3)-(2-O-acetyl-α-L-arabinopyranoside)], the concentration for half-maximal inhibition (IC50) in the assay with HL-60 cells [1] is < 0.5 nM; in the assay on AsPC-1/IκBα-ND cells it was ~0.3 nM; in assay [4] it was ~1 nM; in assay [5] it was < 1 nM. The apoptosis result in assay [2] is listed as “does not result in significant apoptosis”. For the same compound, the “change in mitochondrial transmembrane potential” value with HL-60 cells [3] (16-24 h) is given as “substantial loss of mitochondrial transmembrane potential”; with HL-60 cells [3] (4 h), “did not cause a significant change in mitochondrial transmembrane potential”.
